Reference: US20210207099A1, “METHODS AND COMPOSITIONS FOR GENERATING CELLS OF ENDODERMAL LINEAGE AND BETA CELLS AND USES THEREOF” (priority 2018, published 2021)

Key:
Format in all cases: cell-based, human
[1] = tested on: plated cells of the SC-β cell protocol; assay: Bulk RNA sequencing at stage 6 of plated cells treated with latrunculin A
Description: Cells generated with the suspension protocol were single-cell dispersed from clusters with TrypLE at the end of stage 3 and seeded onto collagen 1 coated 24-well plates at 0.625×10^6 cells/cm^2. Either 0.5 μM latrunculin A was added throughout the entirety of stage 4 or 1 μM latrunculin A was added for the first 24 hours of stage 5. After two weeks in stage 6, RNA was extracted with the RNeasy Mini Kit (Qiagen, 74016), including a DNase treatment (Qiagen, 79254) during extraction. Samples were delivered to Washington University in St. Louis Genome Technology Access Center for library preparation and sequencing. Samples were prepared by RNA depletion using Ribo-Zero according to library kit manufacturer's protocol, indexed, pooled, and sequenced on an Illumine HiSeq.
Differential gene expression analysis was performed using EdgeR. DGEList was used to create the count object and normalized the data using the trimmed mean M-values (TMM) method with calcNormFactors. Pairwise comparisons were performed using exactTest and used topTags to obtain differentially expressed genes and their respective log fold change (log FC) and adjusted p-value (FDR). These values were used to generate volcano plots using ggplot2. Hierarchical clustering and heatmaps were performed and generated with heatmap.2 (gplots) using log CPM calculated expression levels. […]

[2] = tested on: HUES8 cells, intestinal differentiation protocol; assay: Intestine differentiation with cytoskeletal compounds; conditions: 1 μM for the first 24 hours of stage 2
Description: For differentiation to other endodermal lineages, HUES8 stem cells were cultured and passaged normally. Differentiations were initiated 24 hours after seeding 24-well plates at 0.521×10^6 cells/cm^2. Protocols for exocrine pancreas, intestine, and liver were adapted, from literature. Either latrunculin A or nocodazole were added as indicated in each protocol. All three differentiation protocols used the same stage 1 to induce endoderm. Stage 1 (4 days): BE1 media+100 ng/mL Activin A+3 μM CHIR99021 for the first 24 hours, followed with 3 days of BE1 containing 100 ng/mL Activin A only.
Intestine Differentiation: Stage 2 (4 days): BE2 media+3 μM CHIR99021+500 ng/mL FGF4 (R&D Systems, 235-F4). Either 1 μM latrunculin A was added for the first 24 hours of this stage, or 1 μM nocodazole was added for the entirety of stage 2. Stage 3 (7 days): BE3 media+500 ng/mL R-spondin1 (R&D Systems, 4645-RS)+100 ng/mL EGF (R&D Systems, 236-EG)+200 nM LDN193189.

F-actin = F-actin staining and G/F actin ratio by western blot; conditions: 1 μM for 24 hours, plated stage 4 cells
Description: Brightfield images were taken with a Leica DMi1 inverted light microscope, and fluorescence images were captured with a Nikon A1Rsi confocal microscope. For immunostaining, cells were fixed with 4% paraformaldehyde (PFA) at room temperature for 30 minutes. They were then blocked and permeabilized for 45 minutes at room temperature with an immunocytochemistry (ICC) solution consisting of 0.1% triton X (Acros Organics, 327371000) and 5% donkey serum (Jackson Immunoresearch, 017000-121) in PBS (Corning, 21-040-CV). Samples were then incubated with primary antibodies diluted in ICC solution overnight at 4° C., washed with ICC, incubated with secondary antibodies diluted in ICC for 2 hours at room temperature, and stained with DAPI for 15 minutes at room temperature. For histological sectioning, whole SC-β cell clusters generated with the planar protocol and mouse kidneys containing transplanted cells were fixed overnight with 4% PFA at 4° C. The in vitro clusters were also embedded in Histogel (Thermo Scientific, hg-4000-012). These samples were then paraffin-embedded and sectioned by the Division of Comparative Medicine (DCM) Research Animal Diagnostic Laboratory Core at Washington University in St. Louis. Paraffin was removed from sectioned samples with Histoclear (Thermo Scientific, C78-2-G), and antigen retrieval was carried out in a pressure cooker (Proteogenix, 2100 Retriever) with 0.05 M EDTA (Ambion, AM9261). Slides were blocked and permeabilized with ICC solution for 45 minutes, incubated with primary antibodies in ICC solution overnight at 4° C., and incubated with secondary antibodies for 2 hours at room temperature. Slides were then sealed with DAPI Fluoromount-G (SouthernBiotech, 0100-20).
G/F actin ratio was determined by western blot following the instructions of the G-actin/F-actin In Vivo Assay Kit (Cytoskeleton, Inc, BK037). Western blot was visualized using SuperSignal West Pico PLUS Chemiluminescent substrate (ThermoScientific, 34577) and the Odyssey FC (LI-COR) imager.

C/C1=C/C(=O)O[C@@H]2C[C@@H](CC[C@H](C)/C=C\C=C\CC1)O[C@@](O)([C@@H]1CSC(=O)N1)C2 [latrunculin A]
gene expression profile at stage 6 ([1]; 0.5 μM throughout stage 4): increasing intestine and stomach gene expression
gene expression profile at stage 6 ([1]; 1 μM for the first 24 hours of stage 5): increasing expression of β cell and islet genes
markers of intestinal stem cells and Paneth cells [2]: greatly increased markers intestinal stem cells as well as Paneth cells
F-actin polymerization state (F-actin): almost complete depolymerization of F-actin
G/F-actin ratio (F-actin): increased G/F-actin ratio
PDX1 expression by immunostaining (F-actin): maintenance of PDX1 expression
